One series deals with rats. The following applies: cited from earlier work; for osteosarcoma on long-term usage: rats.
The conditions of series [1]: men and women who can lose 20-30% of cortical and cancellous bone; cited from earlier work.
Series [2] concerns MC-3T3 osteoblastic cells and MLO-Y4 osteocytic cells. Nature of the series: Gene expression in bone cell lines by real-time PCR (Example 7). The series is classed as cell-based. The following applies: 100 nM PTH polypeptide, 1 or 3 hours. The method, then: Full-length recombinant black bear PTH (residues 1-84) is produced and its effects on levels of gene expression in bone cell lines (MC-3T3 osteoblastic cells and MLO-Y4 osteocytic cells) are investigated and are compared to results obtained using recombinant human PTH 1-84. Equivalent experiments are conducted using subfragments of black bear and human PTH, the subfragments including amino acid residues 1-34, 1-36, 7-84, 11-84, and 41-52 of the full-length (1-84) mature protein. For some experiments, black bear and human PTH polypeptides are synthesized with solid-phase methods.
To determine the effect of black bear and human PTH on regulation of bone matrix, transcriptional regulatory, anti-apoptosis (Bcl-2) genes, and the pro-apoptosis gene Bax, cells are cultured for 1 or 3 hours with human or bear PTH 1-84 or a subfragment. Gene expression is quantified with real-time PCR. […]
Reverse transcription to generate cDNA is performed using Superscript II reverse transcriptase (Invitrogen, Carlsbad, Calif.), and 0.5 μg Oligo(dT) 12-18 primer at 42° C. for 20 minutes, 50° C. for 10 minutes and 42° C. for 1 hour in a gradient thermocycler (Mastercycler gradient, Eppendorf, Westbury, N.Y.). […] Gene expression is determined using the relative standard curve method normalized to the geometric mean of the three housekeeping genes. […]
A general note: Quantitative PCR measures a nucleic acid by following its amplification.

For a further series, the system named is MC-3T3 cells. Nature of the series: Gene expression by real-time PCR in MC-3T3 cells incubated with synthetic bear or human PTH 1-34 (Example 11). The following applies: 100 nM; for expression ratio of Bax/Bcl-2: 3 hours, MC-3T3 cells (FIG. 7, n=4); for expression of type I collagen / expression of osteocalcin: 6 hours, MC-3T3 cells; for expression of type I collagen: compared to the vehicle control; for expression of osteocalcin: compared to the vehicle control (FIG. 6, n=2). The series is classed as cell-based. As to the method:
MC-3T3 cells were incubated in vehicle or 100 nM synthetic bear or human PTH 1-34 for 3 or 6 hours (n=2 or 4). Total RNA was isolated, and cDNA was generated with reverse transcription. Primers for the bone matrix proteins type I collagen and osteocalcin, the pro-apoptotic protein Bax, the anti-apoptotic protein Bcl-2, and the housekeeping genes Gapdh, β-actin, and cyclophillin were designed using PrimerQuest software (Integrated DNA Technologies, Coralville, Iowa). Real-time PCR was performed using the Mx3000P real-time PCR system (Stratagene, LaJolla, Calif.). All samples were measured in duplicate. Gene expression was determined using the relative standard curve method normalized to the geometric mean of the three housekeeping genes (Gapdh, β-actin, and cyclophillin). Apoptosis-related genes were analyzed as the expression ratio of Bax/Bcl-2, since a decrease in this ratio is associated with decreased apoptosis in vitro.

The subject of another series is ovariectomized rats. The following applies: cited from earlier work.
The subject of a further series is procollagen-1 mRNA. The following applies: Nasu et al., 1998; cited from earlier work.
For series [3] the following is noted: humans, once daily; cited from earlier work.

“Also recorded” adds a separate entry of the source.

Turning to `CC[C@H](C)[C@H](NC(=O)[C@H](CCC(=O)O)NC(=O)[C@H](CO)NC(=O)[C@@H](NC(=O)[C@@H](N)CO)C(C)C)C(=O)N[C@@H](CCC(N)=O)C(=O)N[C@@H](CC(C)C)C(=O)N[C@@H](CCSC)C(=O)N[C@@H](Cc1cnc[nH]1)C(=O)N[C@@H](CC(N)=O)C(=O)N[C@@H](CC(C)C)C(=O)NCC(=O)N[C@@H](CCCCN)C(=O)N[C@@H](Cc1cnc[nH]1)C(=O)N[C@@H](CC(C)C)C(=O)N[C@@H](CC(N)=O)C(=O)N[C@@H](CO)C(=O)N[C@@H](CCSC)C(=O)N[C@@H](CCC(=O)O)C(=O)N[C@@H](CCCN=C(N)N)C(=O)N[C@H](C(=O)N[C@@H](CCC(=O)O)C(=O)N[C@@H](Cc1c[nH]c2ccccc12)C(=O)N[C@@H](CC(C)C)C(=O)N[C@@H](CCCN=C(N)N)C(=O)N[C@@H](CCCCN)C(=O)N[C@@H](CCCCN)C(=O)N[C@@H](CC(C)C)C(=O)N[C@@H](CCC(N)=O)C(=O)N[C@@H](CC(=O)O)C(=O)N[C@H](C(=O)N[C@@H](Cc1cnc[nH]1)C(=O)N[C@@H](CC(N)=O)C(=O)N[C@@H](Cc1ccccc1)C(=O)O)C(C)C)C(C)C` [LY333334], the “osteosarcoma on long-term usage” value in the series on rats is “generates osteosarcoma”.
Take “ALX1-11: recombinant human PTH 1-84 (NPS Pharmaceuticals), under consideration for FDA approval”: the “lost bone recovered during suggested treatment regimen” value in series [1] is 8%. In the series on rats, the “osteosarcoma on long-term usage” value is reported as “generates osteosarcoma”.
With “bear PTH 1-34: synthetic polypeptide of amino acid residues 1-34 of black bear parathyroid hormone, SEQ ID NO: 2 (SVSEIQFMHNLGKHLSSMERVEWLRKKLQDVHNF; listed as Ursus americanus)”, the “gene expression (bone matrix, transcriptional regulatory and transcriptional activator genes)” value in series [2] was “upregulates”. Further, in the series with MC-3T3 cells, the “expression ratio of Bax/Bcl-2” value is given as “decreased”, the “expression of type I collagen” value is reported as “did not affect” and the expression of osteocalcin entry is reported as “substantially upregulated”. In the series with MC-3T3 cells (listed as black bear PTH 1-34), the “expression ratio of Bax/Bcl-2” value was “decreases” and the expression of osteocalcin entry was “upregulate”.
On to “bovine PTH 1-34: bovine PTH 1-34; rat PTH 1-34 has 5 amino acid sequence differences from it (AVSEIQFMHNLGKHLSSMERVEWLRKKLQDVHNF; Parathyroid hormone; UniProt P01268 32-65, looked up, fragment)”, for which the “greater bone formation response than to rat PTH 1-34” value with ovariectomized rats (daily 25 μg injections) was 25%. The “greater increase in bone volume fraction during treatment” value in the series with ovariectomized rats (injection, versus rat PTH 1-34) was 37%.
For the molecule “human PTH 1-34: synthetic human PTH 1-34, the 1-34 region of human PTH, used as comparator (SVSEIQLMHNLGKHLNSMERVEWLRKKLQDVHNF; Parathyroid hormone; UniProt P01270 32-65, looked up, fragment)”, in the series with procollagen-1 mRNA, the “production of procollagen-1 mRNA” value is on record as “down-regulates”. Also, in the series on MC-3T3 cells, the “expression ratio of Bax/Bcl-2” value is on record as “increases”, the “expression of type I collagen” value was “did not affect” and the expression of osteocalcin entry is listed as “substantially upregulated; also recorded: upregulate”.
On to “human PTH 1-84: full-length human parathyroid hormone, residues 1-84”, for which the “rate of carcinogenicity compared with human PTH 1-34” value with rats (preliminary results) was “lower”.

B1: Human PTH: human parathyroid hormone given once daily to humans (protein, UniProt P01270 32-115, looked up)
Parathyroid hormone: SVSEIQLMHNLGKHLNSMERVEWLRKKLQDVHNFVALGAPLAPRDAGSQRPRKKEDNVLVESHEKSLGEADKADVNVLTKAKSQ
modifications: Parathyroid hormone
B1: in series [3], the bone mass result is reported as “increases” and the fracture incidence result is on record as “decreases”.

Values taken from patent US7994129B2, “Methods of using black bear parathyroid hormone” (Michigan Technological University, priority 2005, dated 2011).
